Reference: ChEMBL document CHEMBL2375224, “Discovery of aryl-biphenyl-2-ylmethylpiperazines as novel scaffolds for 5-HT(7) ligands and role of the aromatic substituents in binding to the target receptor” (Bioorg Med Chem, 2013)

Biological target: 5-hydroxytryptamine receptor 7 (Homo sapiens, UniProt P34969)
Test: Displacement of [3H]-LSD from 5HT7 receptor (unknown origin) expressed in CHOK1 cells
Format: cell-based, CHO-K1

5-hydroxytryptamine receptor 7, sequence (P34969 whole entry): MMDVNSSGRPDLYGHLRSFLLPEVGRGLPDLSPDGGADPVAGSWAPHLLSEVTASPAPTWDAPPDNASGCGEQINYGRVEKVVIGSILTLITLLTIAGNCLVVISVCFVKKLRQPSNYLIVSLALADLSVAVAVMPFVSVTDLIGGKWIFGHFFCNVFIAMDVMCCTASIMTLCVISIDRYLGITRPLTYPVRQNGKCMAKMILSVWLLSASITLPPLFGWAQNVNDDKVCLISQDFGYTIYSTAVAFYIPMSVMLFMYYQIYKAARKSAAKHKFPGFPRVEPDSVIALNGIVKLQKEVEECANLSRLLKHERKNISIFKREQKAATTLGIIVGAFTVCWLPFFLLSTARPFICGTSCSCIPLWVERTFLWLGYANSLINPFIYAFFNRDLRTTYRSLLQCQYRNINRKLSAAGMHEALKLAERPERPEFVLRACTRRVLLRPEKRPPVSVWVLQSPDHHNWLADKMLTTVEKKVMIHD

SMILES | Ki
Fc1ccccc1N1CCN(Cc2ccccc2-c2ccccc2)CC1 | > 10000 nM
COc1ccccc1N1CCN(Cc2ccccc2-c2ccccc2F)CC1 | 658 nM
Cc1ccc(N2CCN(Cc3ccccc3-c3ccccc3)CC2)cc1 | 2760 nM
Cc1ccc(C)c(N2CCN(Cc3ccccc3-c3ccccc3)CC2)c1 | > 10000 nM
COc1ccc(N2CCN(Cc3ccccc3-c3ccccc3)CC2)cc1 | > 10000 nM
Fc1ccc(N2CCN(Cc3ccccc3-c3ccccc3)CC2)cc1 | > 10000 nM
FC(F)(F)c1cccc(N2CCN(Cc3ccccc3-c3ccccc3)CC2)c1 | 1660 nM
COc1ccc(N2CCN(Cc3ccccc3-c3ccccc3)CC2)cc1OC | 1850 nM
Cc1ccccc1N1CCN(Cc2ccccc2-c2ccccc2)CC1 | 1750 nM
COc1ccccc1N1CCN(Cc2ccccc2-c2ccccc2C)CC1 | 311 nM
Cc1ccc(N2CCN(Cc3ccccc3-c3ccccc3)CC2)c(C)c1 | > 10000 nM
COc1ccccc1N1CCN(Cc2ccccc2-c2ccccc2Cl)CC1 | 297 nM
Clc1ccccc1N1CCN(Cc2ccccc2-c2ccccc2)CC1 | > 10000 nM
Cc1cc(C)cc(N2CCN(Cc3ccccc3-c3ccccc3)CC2)c1 | > 10000 nM
COc1cccc(N2CCN(Cc3ccccc3-c3ccccc3)CC2)c1 | > 10000 nM
COc1ccccc1N1CCN(Cc2ccccc2-c2cccc(Cl)c2)CC1 | 219 nM
COc1cccc(-c2ccccc2CN2CCN(c3ccccc3OC)CC2)c1 | 77 nM
Cc1cccc(N2CCN(Cc3ccccc3-c3ccccc3)CC2)c1C | > 10000 nM
COc1ccc(-c2ccccc2CN2CCN(c3ccccc3OC)CC2)cc1 | 46 nM
COc1ccccc1-c1ccccc1CN1CCN(c2ccccc2OC)CC1 | 43 nM
Cc1cccc(N2CCN(Cc3ccccc3-c3ccccc3)CC2)c1 | 1200 nM
COc1ccccc1N1CCN(Cc2ccccc2-c2ccc(Cl)cc2)CC1 | 220 nM
Clc1ccc(N2CCN(Cc3ccccc3-c3ccccc3)CC2)cc1 | > 10000 nM
Fc1cccc(N2CCN(Cc3ccccc3-c3ccccc3)CC2)c1 | > 10000 nM
